Row | melting point [°C] | SMILES
1 | 204 to 210 | Cc1cccc(Cl)c1C(=O)N[C@@H](Cc1ccc(-c2cccn(C)c2=O)cc1)C(=O)O [Example 30, N-[(2-chloro-6-methylphenyl)carbonyl]-4-(1-methyl-2-oxo-3-pyridinyl)-L-phenylalanine]
2 | 219 to 221 | CCc1cccc(C)c1C(=O)N[C@@H](Cc1ccc(-c2c(C(F)(F)F)cc(C)n(C)c2=O)cc1)C(=O)O [Example 34, N-[(2-ethyl-6-methylphenyl)carbonyl]-4-[1,6-dimethyl-4-(trifluoromethyl)-2-oxo-3-pyridinyl]-L-phenylalanine]
3 | 220 to 223 | Cc1cccc(Cl)c1C(=O)N[C@@H](Cc1ccc(-c2c(C(F)(F)F)cc(C)n(C)c2=O)cc1)C(=O)O [Example 36, N-[(2-chloro-6-methylphenyl)carbonyl]-4-[1,6-dimethyl-4-(trifluoromethyl)-2-oxo-3-pyridinyl]-L-phenylalanine]
4 | 181 to 183 | COCCC1(C(=O)N[C@@H](Cc2ccc(-c3c(C(F)(F)F)cc(C)n(C)c3=O)cc2)C(=O)O)CCCC1 [Example 37, N-[[1-(2-methoxyethyl)cyclopentyl]carbonyl]-4-[1,6-dimethyl-4-(trifluoromethyl)-2-oxo-3-pyridinyl]-L-phenylalanine]

Source: patent US6916933B2, “4-pyridinyl-n-acyl-l-phenylalanines” (Hoffman-La Roche Inc., priority 1999, dated 2005)
